Measured values published in ChEMBL document CHEMBL5303573, “Mapping human microbiome drug metabolism by gut bacteria and their genes” (Nature, 2019).

Tests used:
[1] = The drug is tested on Collinsella aerofaciens strain: ATCC25986 for biotransformation. The drug concentrations were measured before and after a 12-h incubation by liquid-chromatography-coupled mass spectrometry (LC–MS); details: 2 µM
[2] = The drug is tested on Collinsella intestinalis strain: DSM13280 for biotransformation. The drug concentrations were measured before and after a 12-h incubation by liquid-chromatography-coupled mass spectrometry (LC–MS); details: 2 µM
[3] = The drug is tested on Bacteroides fragilis strain: HMW615 for biotransformation. The drug concentrations were measured before and after a 12-h incubation by liquid-chromatography-coupled mass spectrometry (LC–MS); details: 2 µM
[4] = The drug is tested on Bacteroides fragilis strain: ATCC43859 for biotransformation. The drug concentrations were measured before and after a 12-h incubation by liquid-chromatography-coupled mass spectrometry (LC–MS); details: 2 µM
[5] = The drug is tested on Bacteroides ovatus strain: ATCC8483 for biotransformation. The drug concentrations were measured before and after a 12-h incubation by liquid-chromatography-coupled mass spectrometry (LC–MS); details: 2 µM
[6] = The drug is tested on Odoribacter splanchnicus strain: fecal isolate for biotransformation. The drug concentrations were measured before and after a 12-h incubation by liquid-chromatography-coupled mass spectrometry (LC–MS); details: 2 µM
[7] = The drug is tested on Clostridium sporogenes strain: ATCC15579 for biotransformation. The drug concentrations were measured before and after a 12-h incubation by liquid-chromatography-coupled mass spectrometry (LC–MS); details: 2 µM
[8] = The drug is tested on Dorea formicigenerans strain: ATCC27755 for biotransformation. The drug concentrations were measured before and after a 12-h incubation by liquid-chromatography-coupled mass spectrometry (LC–MS); details: 2 µM
[9] = The drug is tested on Eubacterium rectale strain: ATCC33656 for biotransformation. The drug concentrations were measured before and after a 12-h incubation by liquid-chromatography-coupled mass spectrometry (LC–MS); details: agathobacter rectalis, 2 µM
[10] = The drug is tested on Providencia stuartii strain: ATCC25827 for biotransformation. The drug concentrations were measured before and after a 12-h incubation by liquid-chromatography-coupled mass spectrometry (LC–MS); details: 2 µM
[11] = bacteroides fragilis, 12 h, 2 µM
Description: The drug is tested on Bacteroides fragilis strain: 3397 (T10) for biotransformation. The drug concentrations were measured before and after a 12-h incubation by liquid-chromatography-coupled mass spectrometry (LC–MS)

[12] = bacteroides thetaiotaomicron, 12 h, 2 µM
Description: The drug is tested on Bacteroides thetaiotaomicron strain: VPI-5482 for biotransformation. The drug concentrations were measured before and after a 12-h incubation by liquid-chromatography-coupled mass spectrometry (LC–MS)

[13] = bacteroides thetaiotaomicron, 12 h, 2 µM; remark: listed apart in the source
Description: The drug is tested on Bacteroides thetaiotaomicron strain: 3731 for biotransformation. The drug concentrations were measured before and after a 12-h incubation by liquid-chromatography-coupled mass spectrometry (LC–MS)

[14] = parabacteroides johnsonii, 12 h, 2 µM
Description: The drug is tested on Parabacteroides johnsonii strain: DSM18315 for biotransformation. The drug concentrations were measured before and after a 12-h incubation by liquid-chromatography-coupled mass spectrometry (LC–MS)

[15] = akkermansia muciniphila, 12 h, 2 µM
Description: The drug is tested on Akkermansia muciniphila strain: ATCC BAA-835 for biotransformation. The drug concentrations were measured before and after a 12-h incubation by liquid-chromatography-coupled mass spectrometry (LC–MS)

[16] = The drug is tested on Bacteroides coprophilus strain: DSM18228 for biotransformation. The drug concentrations were measured before and after a 12-h incubation by liquid-chromatography-coupled mass spectrometry (LC–MS); details: 2 µM
[17] = The drug is tested on Bacteroides xylanisolvens strain: DSM18836 for biotransformation. The drug concentrations were measured before and after a 12-h incubation by liquid-chromatography-coupled mass spectrometry (LC–MS); details: 2 µM
[18] = The drug is tested on Providencia rettgeri strain: DSM1131 for biotransformation. The drug concentrations were measured before and after a 12-h incubation by liquid-chromatography-coupled mass spectrometry (LC–MS); assay type: ADME; design: dose 2 uM, timepoint 0 vs 12 hours; details: 2 µM
[19] = The drug is tested on Bacteroides sp. WH2 strain: WH2 for biotransformation. The drug concentrations were measured before and after a 12-h incubation by liquid-chromatography-coupled mass spectrometry (LC–MS); details: bacteroides sp. wh2, 12 h, 2 µM

SMILES | Bacterial Biotransformation [1] | Bacterial Biotransformation [2] | Bacterial Biotransformation [3] | Bacterial Biotransformation [4] | Bacterial Biotransformation [5] | Bacterial Biotransformation [6] | Bacterial Biotransformation [7] | Bacterial Biotransformation [8] | Bacterial Biotransformation [9] | Bacterial Biotransformation [10] | Bacterial Biotransformation [11] | Bacterial Biotransformation [12] | Bacterial Biotransformation [13] | Bacterial Biotransformation [14] | Bacterial Biotransformation [15] | Bacterial Biotransformation [16] | Bacterial Biotransformation [17] | Bacterial Biotransformation [18] | Bacterial Biotransformation [19]
CN1C(C(=O)Nc2ccccn2)=C(O)c2sccc2S1(=O)=O [TENOXICAM] | Compound NOT metabolized | Compound NOT metabolized | Compound NOT metabolized | Compound NOT metabolized | Compound NOT metabolized | Compound NOT metabolized | Compound NOT metabolized | Compound NOT metabolized | Compound NOT metabolized | Compound NOT metabolized | Compound NOT metabolized | Compound NOT metabolized | Compound NOT metabolized | Compound NOT metabolized | Compound NOT metabolized |  |  |  | 
CCN(C(C)=O)c1cccc(-c2ccnc3c(C#N)cnn23)c1 [ZALEPLON] | Compound NOT metabolized |  | Compound metabolized | Compound metabolized | Compound NOT metabolized | Compound NOT metabolized | Compound NOT metabolized | Compound NOT metabolized |  | Compound NOT metabolized | Compound NOT metabolized |  |  |  | Compound NOT metabolized | Compound NOT metabolized | Compound metabolized | Compound NOT metabolized | 
O=C([O-])C[C@H](O)C[C@H](O)/C=C/c1c(C2CC2)nc2ccccc2c1-c1ccc(F)cc1.O=C([O-])C[C@H](O)C[C@H](O)/C=C/c1c(C2CC2)nc2ccccc2c1-c1ccc(F)cc1.[Ca+2] [PITAVASTATIN CALCIUM] | Compound NOT metabolized | Compound NOT metabolized | Compound NOT metabolized | Compound NOT metabolized | Compound NOT metabolized | Compound NOT metabolized |  | Compound NOT metabolized | Compound NOT metabolized |  | Compound NOT metabolized | Compound NOT metabolized | Compound NOT metabolized | Compound NOT metabolized | Compound NOT metabolized | Compound NOT metabolized | Compound NOT metabolized | Compound NOT metabolized | Compound NOT metabolized
O=C1CC2(CCCC2)CC(=O)N1CCCCN1CCN(c2ncccn2)CC1 [BUSPIRONE] | Compound NOT metabolized | Compound NOT metabolized | Compound NOT metabolized | Compound NOT metabolized | Compound NOT metabolized |  | Compound NOT metabolized | Compound NOT metabolized | Compound NOT metabolized | Compound NOT metabolized | Compound NOT metabolized | Compound NOT metabolized | Compound NOT metabolized | Compound NOT metabolized | Compound NOT metabolized | Compound NOT metabolized | Compound NOT metabolized |  | Compound NOT metabolized
CC(=O)CC(c1ccccc1)c1c(O)c2ccccc2oc1=O (stereo not given) [WARFARIN] | Compound NOT metabolized | Compound NOT metabolized | Compound metabolized | Compound metabolized | Compound NOT metabolized | Compound NOT metabolized |  | Compound NOT metabolized | Compound NOT metabolized | Compound NOT metabolized | Compound NOT metabolized | Compound NOT metabolized | Compound NOT metabolized | Compound NOT metabolized | Compound NOT metabolized | Compound NOT metabolized |  | Compound NOT metabolized | Compound NOT metabolized
COC1=CC(=O)C[C@@H](C)[C@]12Oc1c(Cl)c(OC)cc(OC)c1C2=O [GRISEOFULVIN] | Compound NOT metabolized | Compound NOT metabolized | Compound metabolized | Compound metabolized |  |  |  | Compound NOT metabolized | Compound NOT metabolized |  | Compound metabolized | Compound metabolized | Compound NOT metabolized |  | Compound metabolized |  | Compound metabolized | Compound NOT metabolized | Compound NOT metabolized
C[C@@H](c1ncncc1F)[C@](O)(Cn1cncn1)c1ccc(F)cc1F [VORICONAZOLE] | Compound NOT metabolized | Compound NOT metabolized | Compound metabolized | Compound metabolized | Compound NOT metabolized | Compound metabolized | Compound NOT metabolized | Compound NOT metabolized | Compound NOT metabolized | Compound NOT metabolized | Compound metabolized |  |  | Compound NOT metabolized | Compound NOT metabolized |  | Compound metabolized |  | Compound NOT metabolized
Cc1nc(-c2ccc(OCC(C)C)c(C#N)c2)sc1C(=O)O [FEBUXOSTAT] | Compound NOT metabolized | Compound NOT metabolized | Compound NOT metabolized | Compound metabolized | Compound NOT metabolized | Compound metabolized | Compound NOT metabolized | Compound NOT metabolized | Compound NOT metabolized | Compound NOT metabolized | Compound metabolized | Compound NOT metabolized | Compound NOT metabolized |  |  |  | Compound NOT metabolized |  | Compound NOT metabolized
CCc1cccc2c3c([nH]c12)C(CC)(CC(=O)O)OCC3 (stereo not given) [ETODOLAC] | Compound NOT metabolized | Compound NOT metabolized | Compound metabolized | Compound metabolized | Compound NOT metabolized | Compound metabolized | Compound NOT metabolized | Compound NOT metabolized |  | Compound NOT metabolized | Compound NOT metabolized | Compound metabolized | Compound NOT metabolized | Compound NOT metabolized | Compound NOT metabolized | Compound NOT metabolized | Compound metabolized | Compound NOT metabolized | Compound NOT metabolized
N=C(N)NC(=O)Cc1c(Cl)cccc1Cl [GUANFACINE] | Compound NOT metabolized | Compound NOT metabolized | Compound NOT metabolized | Compound NOT metabolized | Compound NOT metabolized | Compound NOT metabolized | Compound NOT metabolized | Compound NOT metabolized |  | Compound NOT metabolized | Compound NOT metabolized | Compound NOT metabolized |  | Compound NOT metabolized |  |  | Compound NOT metabolized | Compound NOT metabolized | Compound NOT metabolized
